In patent US20230348454A1, “COMPOUNDS AS MODULATORS OF BIS-PHOSPHOGLYCERATE MUTASE FOR THE TREATMENT OF SICKLE CELL DISEASE” (Genzyme Corporation, priority 2020, published 2023):

These compounds were tested against T1, hBPGM (Homo sapiens, UniProt P07738) (assay: BPGM synthase assay). Settings: Table 6; read-out: huBPGM: synthase Enzyme IC50.
T1 sequence (P07738 1-259): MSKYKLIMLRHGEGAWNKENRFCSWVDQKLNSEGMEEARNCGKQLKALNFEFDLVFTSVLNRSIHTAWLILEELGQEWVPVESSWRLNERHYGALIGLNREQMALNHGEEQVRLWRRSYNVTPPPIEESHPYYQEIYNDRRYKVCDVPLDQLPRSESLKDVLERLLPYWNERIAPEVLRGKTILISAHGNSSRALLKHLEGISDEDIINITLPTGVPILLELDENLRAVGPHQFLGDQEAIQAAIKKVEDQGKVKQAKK
Format: biochemical
Description: The following materials were used in this assay: deionized water; Bisphosphoglycerate mutase (BPGM; Standard Buffer: 50 mM Tris, 0.01% Tween 20, pH 7.4); BPGM Reaction Buffer (50 mM Tris, 0.01% Tween 20, 3.23 mM KH2PO4, pH 7.4); dithiothreitol (DTT; Stock solution: 100 mM in Standard Buffer); 384-Well Black Assay Plate (Corning, P/N 3575); DMSO; BPGM Stock Solution (500 nM in BPGM Standard Buffer); Glyceraldehyde 3-phosphate dehydrogenase (GAPDH; Stock Solution: 40 U/mL in 20 mM Tris-HCL Buffer with 20% Glycerol, 1 mM EDTA, 1 mM DTT); Glyceraldehyde 3-phosphate (GAP; Stock Solution: 20 mM in BPGM Standard Buffer); 3-PG Stock Solution (500 μM in BPGM Standard Buffer); Nicotinamide adenine dinucleotide (NAD; Stock Solution: 50 mM in BPGM Standard Buffer); Koningic Acid (1 mM Stock in DMSO); Resazurin Stock Solution (10 mM in DMSO); Diaphorase Stock Solution (40 U/mL in BPGM Standard Buffer); DTT Reaction Buffer (1 mM DTT in BPGM Reaction Buffer); Enzyme Solution (5 nM BPGM, 0.4 U/mL GAPDH in DTT Reaction Buffer); GAPDH Solution (0.4 U/mL GAPDH in DTT Reaction Buffer); Substrate Solution (2 mM NAD, 20 μM 3PG, 800 μM GAP in DTT Reaction Buffer); and Resazurin Solution (5 U/mL Diaphorase, 500 μM Resazurin in BPGM Standard Buffer).
To the assay plate was added Enzyme Solution (20 uL) to columns 2-22 and 24 of the assay plate. To columns 1 and 23 was added GAPDH Solution (20 uL). A separate compound plate was prepared at the desired concentrations and all wells were normalized with 5% DMSO. The compound plate was incubated for 30 minutes at RT. Next, the substrate solution (20 μL) was dispensed to all reaction wells and the plate was incubated for 60 minutes at RT. Koningic acid (1 μL) was added and the plate was incubated for 10 minutes at RT. During this time period, the NADH fluorescence was read at ex: 360/em: 460. Next, Resazurin Solution (10 μL) was added to all reaction wells and the plate was incubated for 30 minutes at RT. The resorufin fluorescence was then read at ex:544/em:590.

Compound	IC50 [µM]
Cc1nc(COCC(=O)N(C)C)sc1-c1nc(-c2cc(F)c3nn[nH]c3c2F)cs1 [Example 48]	0.031
Cc1nc(COC(C)C)sc1-c1cccc(-c2cc(F)c3nn[nH]c3c2F)n1 [Example 236]	0.11
Cc1nc(COc2ccccn2)sc1-c1csc(-c2cc(F)c(O)c(F)c2)c1 [Example 198]	5.2
COC(=O)NCc1nc(C)c(-c2csc(-c3cnc(O)nc3)n2)s1 [Example 193]	23
Cc1nc(COc2ncccn2)sc1-c1ccnc(-c2cc(F)c(O)c(C#N)c2)c1 [Example 58]	1.9
Cc1nc(CNC(=O)C(C)(C)C)sc1-c1ccnc(-c2cc(F)c3nn[nH]c3c2F)n1 [Example 223]	0.84
CNCc1nc(C)c(-c2cccc(-c3cc(F)c4nn[nH]c4c3F)n2)s1 [Example 63]	1.4
Cc1nc(COc2ccccn2)sc1-c1ccnc(-c2cc(F)c3nn[nH]c3c2F)n1 [Example 41]	0.075
Cc1nc(COc2ccccn2)sc1-c1cccc(-c2cc(F)c3nn[nH]c3c2F)n1 [Example 110]	0.16
Cc1nc(COC(=O)N2CCC(O)C2)sc1-c1cccc(-c2cc(F)c(O)c(F)c2F)n1 (stereo not drawn) [Example 35]	0.6
Cc1nc(C)c(-c2csc(-c3cc(F)c4[nH]nnc4c3)n2)s1 [Example 114]	1.2
Cc1nc(CN2CCCC2=O)sc1-c1cccc(-c2cc(F)c3nn[nH]c3c2F)n1 [Example 26]	0.11
COCc1nc(C)c(-c2cccc(-c3cc(F)c4nn[nH]c4c3F)n2)s1 [Example 34]	0.25
Cc1nc(CN/C(=N/C#N)N(C)C)sc1-c1cccc(-c2cc(F)c3nn[nH]c3c2F)n1 [Example 45]	0.048
Cc1nc(CNC(=O)C2CN(C)C2)sc1-c1csc(-c2cc(F)c(O)c(F)c2F)n1 [Example 83]	> 25
Cc1nc(COC(=O)N2CCC(O)C2)sc1-c1cccc(-c2cc(F)c3nn[nH]c3c2F)n1 (stereo not drawn) [Example 85]	0.021
Cc1nc(COCC(C)(C)O)sc1-c1cccc(-c2cc(F)c3nn[nH]c3c2)n1 [Example 219]	0.058
Cc1nc(COC(=O)N2CCC(O)C2)sc1-c1csc(-c2cc(F)c3[nH]nnc3c2F)n1 (stereo not drawn) [Example 75]	0.44
Cc1nc(COc2ncccn2)sc1-c1cccc(-c2ccc(-c3n[nH]c(=O)o3)cc2)n1 [Example 161]	> 25
Cc1nc(COC(=O)N(C)C)sc1-c1nc(-c2cc(F)c3nn[nH]c3c2F)cs1 [Example 44]	0.025
Cc1nc(CO)sc1-c1csc(-c2cc(F)c(O)c(F)c2F)n1 [Example 116]	6.5
Cc1nc(CN(C)C)sc1-c1cccc(-c2cc(F)c3nn[nH]c3c2F)n1 [Example 52]	0.39

Compound	IC50 [µM]
Cc1nc(COC(=O)N(C)CCN(C)C)sc1-c1cccc(-c2cc(F)c(O)c(F)c2F)n1 [Example 36]	1.3
Cc1nc(CNC(=O)C(C)(C)C)sc1-c1csc(-c2cc(F)c(O)c(F)c2F)n1 [Example 111]	0.57
Cc1nc(COc2cccnn2)sc1-c1cccc(-c2cc(F)c3nn[nH]c3c2F)n1 [Example 88]	0.024
Cc1nc(COCC(=O)N2CCNCC2)sc1-c1csc(-c2cc(F)c(O)c(F)c2F)n1 [Example 115]	4.4
Cc1nc(COC(=O)N2CC(O)C2)sc1-c1cccc(-c2cc(F)c3nn[nH]c3c2F)n1 [Example 59]	0.02
Cc1nc(C)c(COc2cc(F)c3nn[nH]c3c2F)s1 [Example 215]	> 25
Cc1nc(-c2cccc(-c3sc(COc4ncccn4)nc3C)n2)nnc1O [Example 230]	> 25
Cc1nc(COCC(C)O)sc1-c1cccc(-c2cc(F)c3nn[nH]c3c2F)n1 (stereo not drawn) [Example 237]	0.022
Cc1nc(COC(=O)N2CCC(N)C2)sc1-c1cccc(-c2cc(F)c(O)c(F)c2F)n1 (stereo not drawn) [Example 29]	5.7
Cc1nc(CNC(=O)N2CCC(O)C2)sc1-c1csc(-c2cc(F)c3[nH]nnc3c2F)n1 (stereo not drawn) [Example 80]	2.8
Cc1nc(COc2nccc(C(=O)O)n2)sc1-c1cccc(-c2cc(F)c3nn[nH]c3c2)n1 [Example 118]	0.028
Cc1nc(COC(C)C(=O)N(C)C)sc1-c1cccc(-c2cc(F)c3nn[nH]c3c2F)n1 (stereo not drawn) [Example 60]	0.055
Cc1nc(C)c(-c2cccc(-c3cc(F)c4nn[nH]c4c3F)n2)s1 [Example 90]	0.34
Cc1nc(COc2ncccn2)sc1-c1cccc(-c2ccc3[nH]c(=O)[nH]c3c2)n1 [Example 128]	6.7
Cc1nc(COc2ncccn2)sc1-c1cccc(-c2nnn[nH]2)n1 [Example 73]	> 25
COC(=O)NCc1nc(C)c(-c2csc(-c3cc(F)c4[nH]nnc4c3F)n2)s1 [Example 67]	0.05
Cc1nc(COC(=O)N(C)C)sc1-c1csc(-c2cc(F)c3[nH]nnc3c2)n1 [Example 109]	0.16
Cc1nc(COc2ncccn2)sc1-c1cccc(-c2ccc(-n3cn[nH]c3=O)cc2)n1 [Example 162]	> 25
Cc1nc(CNCC(C)(C)C)sc1-c1cccc(-c2cc(F)c3nn[nH]c3c2F)n1 [Example 56]	0.26
COC(C)(C)COCc1nc(C)c(-c2cccc(-c3cc(F)c4nn[nH]c4c3F)n2)s1 [Example 227]	0.021
Cc1nc(CNC(=O)N2CCN(C)CC2)sc1-c1csc(-c2cc(F)c(O)c(F)c2F)n1 [Example 108]	14
Cc1nc(COc2ncccn2)sc1-c1cccc(-c2ccc(C#N)c(O)c2F)n1 [Example 105]	0.22

Compound	IC50 [µM]
Cc1nc(COc2ncccn2)sc1-c1cnn(-c2cc(F)c(O)c(F)c2F)c1 [Example 233]	3.9
Cc1nc(CNc2cccnn2)sc1-c1csc(-c2cc(F)c(O)c(F)c2F)n1 [Example 89]	0.28
Cc1nc(CN(C)CC(C)(C)O)sc1-c1cccc(-c2cc(F)c3nn[nH]c3c2F)n1 [Example 225]	0.21
Cc1nc(COc2ccccn2)sc1-c1cccc(-c2cc(F)c(O)c(F)c2)n1 [Example 199]	6.5
Cc1nc(C)c(-c2cccc(-c3ccc(C(=O)NS(=O)(=O)c4ccccc4)cc3)n2)s1 [Example 209]	3.3
Cc1nc(COC(C)C(=O)N(C)C)sc1-c1csc(-c2cc(F)c3[nH]nnc3c2F)n1 (stereo not drawn) [Example 50]	0.074
Cc1nc(COc2cccnn2)sc1-c1nc(-c2cc(F)c(O)c(F)c2F)cs1 [Example 77]	1.3
Cc1nc(COC(=O)N2CCC(O)CC2)sc1-c1cccc(-c2cc(F)c3nn[nH]c3c2F)n1 [Example 47]	0.025
Cc1nc(CN/C(=N/C#N)N(C)C)sc1-c1cccc(-c2cc(F)c(O)c(F)c2F)n1 [Example 27]	1.5
Cc1nc(COc2ncccn2)sc1-c1cccc(-c2ccc3oc(=O)[nH]c3c2)n1 [Example 212]	2.6
Cc1nc(COC(=O)N(C)C)sc1-c1ccn(-c2cc(F)c3[nH]nnc3c2F)n1 [Example 46]	0.13
Cc1nc(COc2ccccn2)sc1-c1csc(-c2cc(F)c(F)c(O)c2F)n1 [Example 55]	0.22
Cc1nc(C(=O)N2CCC(O)C2)sc1-c1cccc(-c2cc(F)c3[nH]nnc3c2F)n1 (stereo not drawn) [Example 25]	4.4
COC(=O)NCc1nc(C)c(-c2csc(-c3cnc(O)c(F)c3)n2)s1 [Example 200]	12
Cc1nc(C)c(-c2csc(-c3cc(F)c(O)c(F)c3F)n2)s1 [Example 119]	2.9
Cc1nc(COCC(=O)N2CCC(O)C2)sc1-c1cccc(-c2cc(F)c3nn[nH]c3c2F)n1 (stereo not drawn) [Example 76]	1.1
Cc1nc(C)c(-c2ccn(-c3cc(F)c4[nH]nnc4c3F)n2)s1 [Example 42]	4.1
Cc1nc(COc2ncccn2)sc1-c1csc(-c2cc(F)c3[nH]nnc3c2F)n1 [Example 66]	0.016
Cc1nc(COc2ncccn2)sc1-c1cccc(Nc2ccc3[nH]nnc3c2)n1 [Example 229]	> 25
Cc1nc(COc2ncccn2)sc1-c1cccc(-c2ccc3c(c2)C(=O)NC3=O)n1 [Example 132]	8.1
Cc1nc(COc2ccccn2)sc1-c1csc(-c2cc(F)c3[nH]nnc3c2F)n1 [Example 82]	3.6
Cc1nc(CNc2ncc(C(F)(F)F)cn2)sc1-c1csc(-c2cc(F)c(O)c(F)c2F)n1 [Example 84]	> 25
